Measured values: US10336788B2, “Inhibition of cardiac fibrosis in myocardial infarction” (Moerae Matrix, Inc., priority 2014, dated 2019)
No end group written: not given here.

Tests used:
MK2 = assay: Immunoblot analysis of MK2 activity (HNRNPA0, total MK2, p-MK2) in H9C2 cells; assay type: cell-based, rat
Protocol: Cells were rinsed in PMS and grown in DMEM (cat. #11966-025, Gibco) for 2 hours prior to initiating hypoxia (simulated ischemia). Hypoxia was induced by placing cells in a hypoxia chamber ([…] 150i, Thermo Scientific) in a mixture of 5% CO2/95% N2 to attain a 1% oxygen concentration, according to the manufacturer's instruction. […] The MMI-0100 peptide was added to the cells at the start of the ischemia time. Cells were cultured in 12 well plates. At the time of performing the experiments, all cultures were approximately 70-90% confluent. Three different time points were adopted for each of the three cell lines according to the severity of cell death under hypoxia determined by LDH release: for H9C2 cell line: 8 hr; 16 hr; 24 hr; for HL-1 cell line: 4 hr; 8 hr; 12 hr; for cardiac fibroblast cell line: 16 hr; 32 hr; 48 hr.
The left over cell lysates from the Caspase activity assay were used for the Western blots. […] After blocking with recommended blocking reagents for 1 h at the room temperature, the membranes were incubated overnight at 4° C. with primary antibodies in TBS-T, and then incubated with secondary antibodies conjugated with HRP in TBS-T. HNRNPA0, MAPK2, and phospho-MAPK2 proteins were detected using anti-HNRNPA0 (cat. #HPA036569, 1:1000, Sigma-Aldrich), anti-MAPKAPK2 (cat. #SAB4300553, Sigma-Aldrich), and anti-phospho-MAPKAPK2 (cat. #SAB4300241, 1:1000, Sigma-Aldrich). […]

[1] = test system: primary cardiac fibroblasts; assay: LDH release assay in primary cardiac fibroblasts (1% hypoxia or normoxia); assay type: cell-based, rat
Protocol: H9C2 is a myoblast cell line derived from rat myocardium obtained from ATCC® (CRL-1446, ATCC, Manassas, Va.) and cultured according to the recommended protocols. Briefly, cells were maintained at 37° C. with 5% CO2 in DMEM supplemented with 10% fetal bovine serum and antibiotics (100 U/ml penicillin, […] streptomycin) and split at a ratio of 1:4 using 0.05% trypsin every 36 hours. […]
Cells were rinsed in PMS and grown in DMEM (cat. #11966-025, Gibco) for 2 hours prior to initiating hypoxia (simulated ischemia). […] Three different time points were adopted for each of the three cell lines according to the severity of cell death under hypoxia determined by LDH release: for H9C2 cell line: 8 hr; 16 hr; 24 hr; for HL-1 cell line: 4 hr; 8 hr; 12 hr; […]; 32 hr; 48 hr.
Cell death was first determined using an LDH release assay (cat. #630117, Clontech), according to the manufacturer's instructions. […] Caspase 3/7 activity was next determined using a commercial Caspase 3/7 activity kit (Cat. #G8091, Promega, Madison, Wis. 53711) in a 384 well plate (Cat. #781903, Greiner bio-one) according to the manufacturer's instructions. […] The resulting cell lysates (25 μl, with 0.6 ug total protein) and Caspase-Glo 3/7 Reagent were added to each well in a 1:1 ratio and the luminescence was read (CLARIOstar, BMG LABTECH GmbH). […]

## YARAAARQARAKALARQLGVAA [MMI-0100]
MK2; 100 μM, after induction by hypoxia
  HNRNPA0 expression: significantly inhibited
MK2; 20 or 100 μM, 1% hypoxia
  total MK2 and p-MK2 protein levels: not changed
[1]; 16, 32, and 48 hours of hypoxia
  LDH release: significantly enhanced
[1]; absence of hypoxia, 4 hours (so in the source)
  LDH release in normoxic conditions: did not enhance LDH release
